This note sets out measurements from patent publication US20090018150A1, “5-Ht2b Receptor Antagonists” (ASTERAND UK LIMITED, priority 2003, published 2009).

Where a name gives a salt, the structure may show the parent alone. Some results are limits rather than exact numbers.

Test [1] deals with T1, cloned human 5-HT2A receptor (Homo sapiens, UniProt P28223).
T1 construct: purchased Euroscreen; host or cells: CHO-K1
In words: Human 5-HT2A receptor binding assay. As to conditions: [3H]ketanserin (1 nM) displacement, CHO-K1 cell membranes; read-out: 5-HT2A pKi (converted). The protocol: (§1) The binding affinity of ligands for human 5-HT2A and 5-HT2C receptors was determined using the following assay.
Membrane preparations from CHO-K1 cells expressing the cloned human 5-HT2A receptor were obtained (Euroscreen). The membranes were thawed rapidly and diluted in assay buffer containing Tris-HCl (50 mM, pH 7.7). The membranes were resuspended by homogenisation, prior to adding 15 μg of membranes to assay wells containing [3H]ketanserin (1 nM), assay buffer (50 mM Tris at pH 7.4) containing pargyline (10 μM), and test compounds (1×10^−10 to 1×10^−4M). Non specific binding was determined in the presence of 100 μM mianserin. After 15 minutes incubation at 37° C., the assay mixture was filtered through a combination of GF-C and GF-B filters, pre-soaked in 0.05% Brij, using a Brandel cell harvester, and were washed three times using ice cold Tris-HCl buffer (50 mM). Radioactivity retained on the filters was determined by liquid scintillation counting. For each test compound, the concentration that inhibited binding of [^3H]ketanserin by 50% was determined using curve fitting software (Prism). Kd values (concentration of ketanserin required to occupy 50% of the receptor binding sites at equilibrium) determined from saturation binding studies were then used to calculate inhibition dissociation constants (Ki) using the following equation: […]

In test [2] the target is T2, human cloned 5-HT2B receptors (Homo sapiens, UniProt P41595).
T2 construct: expressed in transfected cells; host or cells: CHO-K1
In words: Human cloned 5-HT2B receptor binding assay. Particulars: [3H]LSD (1 nM) displacement, membranes of CHO-K1 cells expressing cloned 5-HT2B receptor; read-out: 5-HT2B pKi (converted). The protocol: The binding affinity of the compounds for human cloned 5-HT2B receptors was determined using the following assay.
CHO-K1 cells expressing cloned 5-HT2B receptor were maintained in Ultra-CHO medium containing 400 μg/ml of G418, 100 U/ml penicillin, 100 μg/ml streptomycin, 2.5 μg/ml fungizone and 1-foetal bovine serum, in 95/5% O2/CO2 at 37° C. The cells were harvested using 0.25% trypsin and were centrifuged at 800 rpm for 8 minutes. The cells were homogenised in 50 mM HEPES buffer containing 1 mM disodium EDTA and 1 mM PMSF at pH 7.4, using a Dounce homogeniser (20 strokes). The homogenate was centrifuged at 2280 rpm (1000 g) and 4° C. for 10 minutes, after which the supernatant was removed by decanting. The pellet was re-homogenised as above, and the resulting supernatant removed and combined with that already obtained. The supernatant solution was then centrifuged at 18300 rpm (40000 g) for 10 minutes at 4° C. using a Sorvall centrifuge. The supernatant was removed, and the pellet was re-suspended in 50 mM buffer at pH 7.4 using a Ultra-turrax T25 Polytron, before centrifugation again at 40000 g as above. This wash procedure was repeated, after which the membrane preparation was stored at a concentration of 1 mg/ml at −80° C. until use.
The membranes were thawed rapidly and diluted in assay buffer containing Tris-HCl (50 mM, pH 7.4), ascorbic acid (0.1°) and calcium chloride (4 mM). The membranes were homogenised to resuspend them, prior to adding 10 or 15 μg of membranes to assay wells containing [^3H]LSD (1 nM), assay buffer (50 mM Tris, 4 mM calcium chloride and 0.1° ascorbic acid) containing pargyline (10 μM), and the test compounds (1×10^−10 to 1×10^−4M). Non specific binding was determined in the presence of 100 μM 5-HT. After 30 minutes incubation at 37° C., the assay mixture was filtered through a combination of GF-C and GF-B filters, pre-soaked in 1% polyethyleneimine, using a Brandel cell harvester, and were washed three times using 50 mM Tris-HCl. Radioactivity retained on the filters was determined by liquid scintillation counting. For each test compound, the concentration that inhibited binding of [^3H]LSD by 50% was determined using curve fitting software (Prism). Kd values (concentration of LSD required to occupy 50% of the receptor binding sites at equilibrium) determined from saturation binding studies were then used to calculate inhibition dissociation constants (Ki) using the following equation: […]
This approach follows that set out in Kenakin, T. P. Pharmacologic analysis of drug-receptor interaction. Raven Press, New York, 2nd Edition.

Test [3] deals with T3, cloned human 5-HT2C receptor (Homo sapiens, UniProt P28335).
T3 construct: purchased Euroscreen; host or cells: CHO-K1
T3 sequence (P28335 33-458): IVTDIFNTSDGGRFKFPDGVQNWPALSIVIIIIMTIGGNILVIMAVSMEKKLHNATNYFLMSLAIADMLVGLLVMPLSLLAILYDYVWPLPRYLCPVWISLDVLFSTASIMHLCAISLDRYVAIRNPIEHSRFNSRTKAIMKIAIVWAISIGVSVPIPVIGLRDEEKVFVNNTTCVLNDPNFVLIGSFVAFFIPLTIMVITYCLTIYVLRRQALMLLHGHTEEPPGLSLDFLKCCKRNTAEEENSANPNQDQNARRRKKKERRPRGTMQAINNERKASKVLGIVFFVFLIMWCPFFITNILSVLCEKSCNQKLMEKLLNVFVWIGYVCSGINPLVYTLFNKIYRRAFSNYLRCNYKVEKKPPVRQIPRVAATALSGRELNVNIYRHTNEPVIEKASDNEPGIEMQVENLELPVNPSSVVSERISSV
In words: Human 5-HT2C receptor binding assay. Particulars: [3H]mesulergine (1 nM) displacement, CHO-K1 cell membranes; read-out: 5-HT2C pKi (converted). As for the experimental part: as §1
Membrane preparations from CHO-K1 cells expressing the cloned human 5-HT2C receptor were obtained (Euroscreen). The membranes were thawed rapidly and diluted in assay buffer containing Tris-HCl (50 mM, pH 7.7), ascorbic acid (0.1%) and pargyline (10 μM). The membranes were resuspended by homogenisation, prior to adding 6 μg of membranes to assay wells containing [^3H]mesulergine (1 nM), assay buffer (50 mM Tris at pH 7.7 and 0.1% ascorbic acid) containing pargyline (10 μM), and test compounds (1×10^−10 to 1×10^−4M). Non specific binding was determined in the presence of 100 μM mianserin. After 30 minutes incubation at 37° C., the assay mixture was filtered through a combination of GF-C and GF-B filters, pre-soaked in 1% bovine serum albumin, using a Brandel cell harvester, and were washed three times using ice cold Tris-HCl buffer (50 mM). Radioactivity retained on the filters was determined by liquid scintillation counting. For each test compound, the concentration that inhibited binding of [^3H]mesulergine by 50% was determined using curve fitting software (Prism). Kd values (concentration of mesulergine required to occupy 50% of the receptor binding sites at equilibrium) determined from saturation binding studies were then used to calculate inhibition dissociation constants (Ki) using the following equation: […]

T2 sequence (P41595 whole entry): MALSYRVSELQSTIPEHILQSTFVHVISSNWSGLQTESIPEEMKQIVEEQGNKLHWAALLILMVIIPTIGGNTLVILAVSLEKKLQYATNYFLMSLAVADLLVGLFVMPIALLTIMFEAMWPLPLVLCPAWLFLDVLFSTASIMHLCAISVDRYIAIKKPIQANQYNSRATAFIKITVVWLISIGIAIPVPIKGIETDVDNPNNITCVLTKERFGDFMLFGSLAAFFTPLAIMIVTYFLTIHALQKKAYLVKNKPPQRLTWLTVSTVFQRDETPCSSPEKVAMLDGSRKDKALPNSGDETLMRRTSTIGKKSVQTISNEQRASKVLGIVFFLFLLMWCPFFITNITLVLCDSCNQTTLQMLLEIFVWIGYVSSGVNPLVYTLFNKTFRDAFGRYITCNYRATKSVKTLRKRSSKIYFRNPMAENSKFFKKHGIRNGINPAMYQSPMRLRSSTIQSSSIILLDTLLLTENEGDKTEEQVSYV
T1 sequence (P28223 whole entry): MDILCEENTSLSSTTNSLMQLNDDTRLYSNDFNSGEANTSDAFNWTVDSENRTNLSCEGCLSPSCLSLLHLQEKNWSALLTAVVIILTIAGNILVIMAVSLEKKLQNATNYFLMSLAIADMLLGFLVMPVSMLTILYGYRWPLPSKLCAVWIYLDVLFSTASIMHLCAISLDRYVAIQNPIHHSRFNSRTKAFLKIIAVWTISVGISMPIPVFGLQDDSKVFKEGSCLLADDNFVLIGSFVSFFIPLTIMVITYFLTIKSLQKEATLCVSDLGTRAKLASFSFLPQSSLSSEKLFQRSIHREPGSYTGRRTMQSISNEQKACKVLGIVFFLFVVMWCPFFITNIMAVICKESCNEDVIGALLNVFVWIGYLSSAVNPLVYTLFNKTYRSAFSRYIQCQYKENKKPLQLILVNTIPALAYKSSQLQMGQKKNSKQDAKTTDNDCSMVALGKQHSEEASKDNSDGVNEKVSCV

On to `Cc1cc(Nc2ccccc2)nc(N)n1` [Compound 2A, N^4-phenyl-6-methyl-pyrimidine-2,4-diamine hydrochloric acid], for which the Ki was over 10000 nM in test [1], under 1000 nM in test [2] and over 1000 nM in test [3].
For `Cc1cc(Nc2ccc3ncsc3c2)nc(N)n1` [Compound 2AB, N^4-benzothiazol-6-yl-6-methyl-pyrimidine-2,4-diamine hydrochloride] the same measures were over 1000 nM, under 1000 nM and over 1000 nM.
The like results for `COc1ccc(Nc2cc(C)nc(N)n2)cc1Cl` [Compound 2AC, N^4-(3-chloro-4-methoxy-phenyl)-6-methyl-pyrimidine-2,4-diamine, hydrochloride] were, in that order, over 1000 nM, under 1000 nM and over 1000 nM.
For `Cc1cc(Nc2cccc(Oc3ccccc3)c2)nc(N)n1` [Compound 2AD, 6-methyl-N^4-(3-phenoxy-phenyl)-pyrimidine-2,4-diamine hydrochloride] the same measures were over 316 nM, under 1000 nM and over 1000 nM.
Consider `Cc1cc(Nc2ccc(Oc3ccccc3)cc2)nc(N)n1` [Compound 2AE, 6-methyl-N^4-(4-phenoxy-phenyl)-pyrimidine-2,4-diamine hydrochloride], for which the Ki in test [1] was over 10000 nM; in test [2], under 100 nM; in test [3] it was over 316 nM.
For the molecule `Cc1cc(Nc2cccc(Br)c2)nc(N)n1` [Compound 2AF, N^4-(3-bromo-phenyl)-6-methyl-pyrimidine-2,4-diamine trifluoroacetic acid], the Ki is over 3160 nM in test [1], under 1000 nM in test [2] and over 1000 nM in test [3].
In the case of `Cc1cc(Nc2cc(Br)ccc2Br)nc(N)n1` [Compound 2AJ, N^4-(2,5-dibromo-phenyl)-6-methyl-pyrimidine-2,4-diamine trifluoroacetic acid], the Ki in test [1] is over 1000 nM; in test [2], under 100 nM; in test [3], over 316 nM.
Consider `Cc1cc(Nc2ccc(C)c(I)c2)nc(N)n1` [Compound 2AK, N^4-(3-iodo-4-methyl-phenyl)-6-methyl-pyrimidine-2,4-diamine trifluoroacetic acid], for which the Ki in test [2] was under 100 nM.
With `Cc1cc(Nc2cccc(F)c2)nc(N)n1` [Compound 2AN, N^4-(3-fluoro-phenyl)-6-methyl-pyrimidine-2,4-diamine], the results for the Ki in test [1], in test [2] and in test [3] were over 10000 nM, under 1000 nM and over 1000 nM, respectively.
The like results for `Cc1cc(Nc2cc(Br)ccc2C)nc(N)n1` [Compound 2AP, N^4-(5-bromo-2-methyl-phenyl)-6-methyl-pyrimidine-2,4-diamine] were, in that order, over 1000 nM, under 1000 nM and over 1000 nM.
Take `Cc1cc(Nc2ccc(I)cc2)nc(N)n1` [Compound 2E, N^4-(4-iodo-phenyl)-6-methyl-pyrimidine-2,4-diamine hydrochloride]: the Ki in test [1] was over 10000 nM; in test [2] it was under 1000 nM; in test [3] it was over 316 nM.
Consider `Cc1cc(Nc2cccc(-c3cccc(O)c3)c2)nc(N)n1` [Compound 10G, 3′-(2-amino-6-methyl-pyrimidin-4-ylamino)-biphenyl-3-ol trifluoroacetic acid], for which the Ki in test [2] is under 100 nM.
On the same count and under the same terms, then `CC(=O)Nc1nc(-c2cccc(-c3ccccc3)c2)c[nH]1` [Compound 107, N-(4-biphenyl-3-yl-1H-imidazol-2-yl)-acetamide], with under 1000 nM.
On to `CC(C)c1cccc(-c2cccc(-c3cnc(N)o3)c2)c1` [Compound 209M, 5-(3′-Isopropyl-biphenyl-3-yl)-oxazol-2-ylamine, trifluoroacetic acid], for which the Ki in test [2] was under 1000 nM.
Still for that read-out and setting: then `Cc1cccc(-c2cccc(-c3nc(N)oc3C)c2)c1` [Compound 218B, 5-Methyl-4-(3′-methyl-biphenyl-3-yl)-oxazol-2-ylamine, trifluoroacetic acid], with under 1000 nM.
